Values after ≈ are worked out from the molar mass of the structure shown. Read-outs that look alike come from different tables or passages of the source. Marks after values point to notes of the source that are not given here.
What was measured:
Caco-2 cell line [1] = type: in vitro ADME, human
Experimental: (§1) Permeability coefficients are determined as previously reported by Yazdania et.el (Yazdanian M, Glynn, S I, Wright J L, et al. 1998. Correlating partitioning and Caco-2 permeability of structurally diverse small molecular weight compounds. Pharm Res 15:1490-1494). Briefly, drug solutions were prepared in HBSS at a known final concentration. For AP to BL experiments, the solution was placed on the apical side of the cells and samples were taken from basolateral side. In contrast, for BL to AP experiments, the solution was placed on the basolateral side of the cells and samples were taken from apical side. The samples are analyzed by an HPLC. Transport rates (J) are determined by plotting cumulative amounts of drug permeated as a function of time. Apparent permeability coefficients Pcaco-2, are determined according to the equation Pcaco-2=J/ACi where Ci is the initial concentration of the solution in donor chamber and A is the surface area of the filter.
(§2) The original cell line integrity and the effect of excipients on the integrity of cell line were also tested by measuring the flux of ^14C-mannitol.

Caco-2 cells = assay: Lactate dehydrogenase (LDH) assay after the permeation studies; type: cell-based, human
Experimental: In addition, a lactate dehydrogenase (LDH) assay was conducted after the permeation studies to evaluate the cytotoxicity of the absorption enhancers as well as to discover any violation of the integrity of the Caco-2 cells. LDH is a cytosolic enzyme that is not normally secreted outside the cell. However, it leaks into the culture medium upon damage to the cell membranes. In vitro release of LDH from cells provides an accurate measure of cell membrane integrity and cell viability. […] LDH leakage into the apical compartment of the Caco-2 cell system was used to measure the effect, if any, of a given absorption enhancer on the viability of the Caco-2 cells.

Caco-2 cell line [2] = type: in vitro ADME, human; settings: for Permeability Coefficient, Sampatrilat / Effect on sampatrilat permeation across the Caco-2 cell line: Caco-2
From the text: (§3) The Caco-2 cell line is a well-recognized in vitro screening model, which both structurally and functionally represents the small intestinal epithelium. Caco-2 cells are derived from human colon carcinoma cells and differentiate in culture to form intestinal epithelia similar to that found in the small intestine. More specifically, Caco-2 cells form a brush border with normal enzymes, form tight junctions between cells, and acquire the barrier properties of an enterocyte sheet.
as §1, §2

Caco-2 cell line [3] = type: in vitro ADME, human; remark: listed apart in the source
From the text: as §3, §1

in vitro = settings: human, Caco-2
Experimental: (§4) The effectiveness of N-methylated glycines as permeability enhancers was evaluated using mannitol as a control.

Caco-2 cell line [4] = settings: human
Experimental: as §4

[5] = in vivo; tablet dosage form; earlier studies; cited from earlier work
[6] = Aqueous solubility of sampatrilat; type: physicochemical
[7] = sampatrilat study, excipient 1% w/v (none for drug alone)
[8] = hydrochlorothiazide study 1, excipient 1% (none for drug alone)
[9] = hydrochlorothiazide study 5, excipient 5% w/v (none for drug alone)
[10] = mannitol study, first series, enhancer 1% (none for mannitol control)
[11] = hydrochlorothiazide study 2, excipient 1% (none for drug alone)
[12] = mannitol study, first series, enhancer 0.5%
[13] = hydrochlorothiazide study 3, excipient 1% (none for drug alone)

With `NCCCCCC(=O)O` [Amino caproic acid] the “Permeability coefficient (mannitol)” value (Caco-2 cell line [1]) was 1.07 10E−6 cm/s, the Toxicity (Caco-2 cells; [7]) was “Yes” and the “Permeability Coefficient, Sampatrilat” value (Caco-2 cell line [2]) was 0.48 10E−6 cm/s.
For `NC(=O)NCCC[C@H](N)C(=O)O` [Citrulline], the “Permeability coefficient (mannitol)” value (Caco-2 cell line [1]) was 0.22 10E−6 cm/s, the Toxicity (Caco-2 cells; [7]) was “Yes” and the “Permeability Coefficient, Sampatrilat” value (Caco-2 cell line [2]) was 0.34 10E−6 cm/s.
In the case of `O=C1CCCCCCCCCCCCCCO1` [Cyclopentadecanolide, cyclopentadecanolide], the Toxicity (Caco-2 cells; [8]) is reported as “No”, the Toxicity (Caco-2 cells; [9]) is reported as “No” and the “Permeability enhancement of hydrochlorothiazide” value (shortened to “Permeability enhancement”) (Caco-2 cell line [3]) is reported as “low or no potency”.
In the case of `CC1(C)[C@@H](O)CC[C@]2(C)[C@H]3C(=O)C=C4[C@@H]5C[C@@](C)(C(=O)O)CC[C@]5(C)CC[C@@]4(C)[C@]3(C)CC[C@@H]12` [Glycyrrehetinic acid, 18β-glycyrrhetinic acid, reference compound], the Toxicity (Caco-2 cells; [8]) is reported as “No” and the “Permeability enhancement” value (Caco-2 cell line [3]) is reported as “low or no potency”.
With `O=c1cc(CO)occ1O` [Kojic acid] the “Permeability coefficient (mannitol)” value (Caco-2 cell line [1]) was 1.63 10E−6 cm/s, the Toxicity (Caco-2 cells; [7]) was “Yes” and the “Permeability Coefficient, Sampatrilat” value (Caco-2 cell line [2]) was 0.49 10E−6 cm/s.
In the case of `OC[C@@H](O)[C@@H](O)[C@H](O)[C@H](O)CO` [Mannitol, reference compound], the Papp at 6.8 uM (in vitro) is reported as 1.24 ×10⁻⁶ cm/s, the Toxicity (Caco-2 cells; [10]) is reported as “No” and the Toxicity (Caco-2 cells; mannitol study, second series, 1% enhancer and 1% Tween 80 (none for mannitol control)) is reported as “No”. The Enhancement ratio (Caco-2 cell line [4]; Caco-2) was 1.0, the Enhancement ratio (Caco-2 cell line [4]; Caco-2, 1 %) was 1.0 and the “Permeability coefficient (mannitol)” value (Caco-2 cell line [4]; Caco-2, 1 %) was 0.93^a ×10^−6 cm/sec.
With `CN(C)CC(=O)O` [N,N-dimethylglycine] the “Permeability coefficient (mannitol)” value (Caco-2 cell line [1]) was 12.30 10E−6 cm/s, the “Cytotoxicity relative to cells treated with Hank's balanced salt solution alone” value (Caco-2 cells) was “not cytotoxic” and the Toxicity (Caco-2 cells; [8]) was “No”. The Toxicity (Caco-2 cells; [11]) was “No”, the Toxicity (Caco-2 cells; hydrochlorothiazide study 4, excipient 1% (none for drug alone)) was “No” and the Toxicity (Caco-2 cells; [12]) was “No”. For the same compound, the Toxicity (Caco-2 cells; [10]) was “No”, the Toxicity (Caco-2 cells; [7]) was “No” and the Enhancement ratio (Caco-2 cell line [4]; Caco-2, 0.5 %) was 9.9. For the same compound, the Enhancement ratio (Caco-2 cell line [4]; Caco-2, 1 %) was 15.9, the “Permeability enhancement” value (Caco-2 cell line [3]) was “demonstrated as permeability enhancers” and the “Effect on sampatrilat permeation across the Caco-2 cell line” value (Caco-2 cell line [2]) was “significantly increase”. For the same compound, the “Permeability Coefficient, Sampatrilat” value (Caco-2 cell line [2]) was 19.90 10E−6 cm/s and the “Increase of sampatrilat permeability over the drug alone” value (Caco-2 cell line [2]; human, Caco-2, 1 % w/v) was 124 fold.
In the case of `O=C(/C=C/C=C/c1ccc2c(c1)OCO2)N1CCCCC1` [Piperine, piperine], the Toxicity (Caco-2 cells; [11]) is reported as “No”, the Toxicity (Caco-2 cells; [9]) is reported as “Yes” and the “Permeability enhancement” value (Caco-2 cell line [3]) is reported as “low or no potency”.
In the case of `CS(=O)(=O)N[C@@H](CCCCN)C(=O)NC[C@H](CC1(C(=O)N[C@@H](Cc2ccc(O)cc2)C(=O)O)CCCC1)C(=O)O` [Sampatrilat], the Oral bioavailability [5] is given as 2-5% and the solubility [6] is given as 1800 µg/mL (≈ 3.08 mM).
In the case of `O=C(O)CCCCCCCCC(=O)O` [Sebacic acid, sebacic acid], the “Permeability coefficient (mannitol)” value (Caco-2 cell line [1]) is reported as 7.50 10E−6 cm/s, the “Cytotoxicity relative to cells treated with Hank's balanced salt solution alone” value (Caco-2 cells) is reported as “not cytotoxic” and the Toxicity (Caco-2 cells; [13]) is reported as “No”. For the same compound, the Toxicity (Caco-2 cells; [7]) was “No”, the “Permeability coefficient (hydrochlorothiazide)” value (Caco-2 cell line [3]) was 7.30 ×10^−6, cm/s and the “Permeability enhancement” value (Caco-2 cell line [3]) was “demonstrated as permeability enhancers”. For the same compound, the “Effect on sampatrilat permeation across the Caco-2 cell line” value (Caco-2 cell line [2]) was “significantly increase” and the “Permeability Coefficient, Sampatrilat” value (Caco-2 cell line [2]) was 2.10 10E−6 cm/s.
In the case of `O=C(O)C1=C[C@@H](O)[C@@H](O)[C@H](O)C1` [Shikimic acid, shikimic acid], the Toxicity (Caco-2 cells; [13]) is reported as “No”, the Toxicity (Caco-2 cells; hydrochlorothiazide study 5, excipient 3% w/v) is reported as “No” and the Toxicity (Caco-2 cells; [7]) is reported as “No”.
With `C[N+](C)(C)CC(=O)O` [betaine, trimethyl glycine] the Toxicity (Caco-2 cells; [10]) was “No”.
For `NCC(=O)O` [glycine], the Toxicity (Caco-2 cells; [12]) was “No”, the Toxicity (Caco-2 cells; [10]) was “No” and the Enhancement ratio (Caco-2 cell line [4]; Caco-2, 0.5 %) was 0.9. The “Permeability coefficient (mannitol)” value (Caco-2 cell line [4]; Caco-2, 0.5 %) was 8.5e-07 cm/s, the Enhancement ratio (Caco-2 cell line [4]; Caco-2, 1 %) was 1.0 and the “Permeability coefficient (mannitol)” value (Caco-2 cell line [4]; Caco-2, 1 %) was 9.3e-07 cm/s.
For `CNCC(=O)O` [sarcosine, methyl glycine], the Toxicity (Caco-2 cells; [12]) was “No”, the Toxicity (Caco-2 cells; [10]) was “No” and the Enhancement ratio (Caco-2 cell line [4]; Caco-2, 0.5 %) was 1.8. For the same compound, the “Permeability coefficient (mannitol)” value (Caco-2 cell line [4]; Caco-2, 0.5 %) was 1.71e-06 cm/s, the Enhancement ratio (Caco-2 cell line [4]; Caco-2, 1 %) was 1.0 and the “Permeability coefficient (mannitol)” value (Caco-2 cell line [4]; Caco-2, 1 %) was 8.9e-07 cm/s.
For Vitamin E TPGS [Vitamin E TGPS], the Toxicity (Caco-2 cells; [13]) was “No”, the “Permeability coefficient (hydrochlorothiazide)” value (Caco-2 cell line [3]) was 0.58 ×10^−6, cm/s and the “Permeability enhancement” value (Caco-2 cell line [3]) was “low or no potency”.
